These are literature values, as cited in US20100172982A1, “SUSTAINED RELEASE FORMULATIONS OF DIVALPROEX SODIUM” (SUN PHARMACEUTICAL INDUSTRIES LIMITED, priority 2007, published 2010).

The conditions of the data set: children.

For `CCCC(CCC)C(=O)O` [valproic acid, 2-propylpenatnoic acid], the elimination half-life result is “four and fourteen”.
